In article PMC11855827, “High-Throughput Screening of Five Compound Libraries for Anthelmintic Activity and Toxicity Leads to the Discovery of Two Flavonoid Compounds” (International Journal of Molecular Sciences, 2025):
Like-named read-outs stand apart in the source and are kept apart here.

Tested on: C. elegans
Assay: microbe, parasite or virus in culture
Settings: Caenorhabditis elegans
[1] = 0 h, read-out: Percentage of motility inhibition 0 h, Table S2, C. elegans SS assay, 110 μM, 0 h, averages of 4 data points
[2] = 24 h, read-out: Percentage of motility inhibition 24 h, Table S2, C. elegans SS assay, 110 μM, 24 h, averages of 4 data points
[3] = 0 h, read-out: Percentage of motility inhibition 0 h
[4] = 24 h, read-out: Percentage of motility inhibition 24 h

SMILES	inhibition at 110 µM [1]	inhibition at 110 µM [2]	inhibition at 110 µM [3]	inhibition at 110 µM [4]
C[C@H]1CC[C@]2(NC1)O[C@H]1C[C@H]3[C@@H]4CC[C@H]5C[C@@H](O)CC[C@]5(C)[C@H]4CC[C@]3(C)[C@H]1[C@@H]2C [Tomatidine]	6%	0%		
CC(=O)O[C@@H]1C[C@H](O)[C@@]23CO[C@@H](O)[C@]1(C)[C@@H]2C[C@@H](O)[C@]1(C)[C@@H]3C(=O)[C@H](OC(C)=O)[C@@]2(C)[C@H](c3ccoc3)C[C@H]3O[C@]321 [Toosendanin]	0%	7%		
O=C(O)c1cc(=O)c2ccccc2[nH]1 [Transtorine]		0%		
COc1cc(-c2cc(=O)c3c(O)cc(O)cc3o2)cc(OC)c1O [Tricin]	31%	2%		
O=C(Nc1ccc(Cl)cc1)Nc1ccc(Cl)c(Cl)c1 [Triclocarban]	15%	20%		
Oc1cc(Cl)ccc1Oc1ccc(Cl)cc1Cl [Triclosan]	45%	60%		
OC[C@H]1O[C@@H](Oc2ccc3c(c2)OC[C@H]2c4cc5c(cc4O[C@@H]32)OCO5)[C@H](O)[C@@H](O)[C@@H]1O [Trifolirhizin]	11%	0%		
C[n+]1cccc(C(=O)[O-])c1 [Trigonelline]	0%	0%		
COc1cc(NCc2ccc3nc(N)nc(N)c3c2C)cc(OC)c1OC [Trimetrexate]	15%	0%		
Cc1cc2cc3c(C)cc(=O)oc3c(C)c2o1 [Trioxsalen]	6%	7%		
CC(C)c1ccc2c(c1O)CC[C@H]1C3=C(CC[C@]21C)C(=O)OC3 [Triptophenolide]	11%	40%		
CN1[C@@H]2CC[C@H]1C[C@@H](O)C2 [Tropine]	9%	0%		
O=C1c2ccccc2-n2c1nc1ccccc1c2=O [Tryptanthrin]			11%	0%
Nc1ncnc2c1ccn2[C@@H]1O[C@H](CO)[C@@H](O)[C@H]1O [Tubercidin]	5%	0%		
CC[C@@H]1[C@H]2CCCCN3[C@H]2[C@H](C[C@H]3[C@@H]2C[C@H](C)C(=O)O2)[C@@H]2[C@H]1OC(=O)[C@H]2C [Tuberostemonine]	6%	4%		
CC[C@H]1OC(=O)C[C@@H](O)[C@H](C)[C@@H](O[C@@H]2O[C@H](C)[C@@H](O[C@H]3C[C@@](C)(O)[C@@H](O)[C@H](C)O3)[C@H](N(C)C)[C@H]2O)[C@@H](CC=O)C[C@@H](C)C(=O)/C=C/C(C)=C/[C@@H]1CO[C@@H]1O[C@H](C)[C@@H](O)[C@@H](OC)[C@H]1OC [Tylosin]	22%	0%		
O=c1cc[nH]c(=O)[nH]1 [Uracil]	0%	0%		
O=c1ccn([C@@H]2O[C@H](CO)[C@@H](O)[C@H]2O)c(=O)[nH]1 [Uridine]	0%	10%		
C[C@H]1[C@H](C)CC[C@]2(C(=O)O)CC[C@]3(C)C(=CC[C@@H]4[C@@]5(C)CC[C@H](O)C(C)(C)[C@@H]5CC[C@]43C)[C@H]12 [Ursolic acid]	0%	0%		
C[C@H]1[C@H](C)CC[C@]2(C(=O)O)CC[C@]3(C)C(=CC[C@@H]4[C@@]5(C)CCC(=O)C(C)(C)[C@@H]5CC[C@]43C)[C@H]12 [Ursonic acid]			18%	23%

SMILES	inhibition at 110 µM [1]	inhibition at 110 µM [2]	inhibition at 110 µM [3]	inhibition at 110 µM [4]
C[C@H]1[C@H](C)CC[C@]2(CO)CC[C@]3(C)C(=CC[C@@H]4[C@@]5(C)CC[C@H](O)C(C)(C)[C@@H]5CC[C@]43C)[C@H]12 [Uvaol]	19%	2%		
CC(C)(C)C#Cc1cc(N(C(=O)[C@H]2CC[C@H](C)CC2)[C@H]2CC[C@H](O)CC2)c(C(=O)O)s1 [VX‐222]	48%	57%		
COc1cc(C=O)ccc1O [Vanillin]	24%	11%		
COC[C@H]1C[C@@H](c2nc(-c3ccc4c(c3)COc3cc5c(ccc6nc([C@@H]7CC[C@H](C)N7C(=O)[C@@H](NC(=O)OC)C(C)C)[nH]c65)cc3-4)c[nH]2)N(C(=O)[C@H](NC(=O)OC)c2ccccc2)C1 [Velpatasvir]	19%	1%		
COc1cc(O)c2c(=O)cc(-c3ccc(O)c(OC)c3)oc2c1 [Velutin]	11%	19%		
Cc1c([C@H](C)[C@@H]2NC[C@@H](C)C[C@H]2O)ccc2c1C[C@H]1[C@H]2CC=C2C[C@@H](O)CC[C@@]21C [Veratramine]			9%	2%
COc1ccc(C(=O)O[C@H]2CC[C@@]3(C)[C@@H]4CC[C@H]5[C@]6(O)C[C@H](O)[C@@]7(O)[C@@H](CN8C[C@@H](C)CC[C@H]8[C@@]7(C)O)[C@]6(O)C[C@@]53O[C@]24O)cc1OC [Veratridine]	4%	0%		
CC1=CC(=O)[C@@H]2C[C@H]1C2(C)C [Verbenone]	4%	4%		
Nc1nc(N)c(O[C@@H]2O[C@H](CO)[C@@H](O)[C@H](O)[C@H]2O)c(=O)[nH]1 [Vicine]	0%	0%		
CC[C@]12CCCN3CCc4c(n(c5ccccc45)C(=O)C1)[C@@H]32 [Vinburnine]	0%			
CC[C@]12CCCN3CCc4c(n(c5ccccc45)[C@@](O)(C(=O)OC)C1)[C@@H]32 [Vincamine]	0%			
CCC12C=CCN3CC[C@@]4(c5ccc(OC)cc5N(C)[C@H]4[C@@](O)(C(=O)OC)[C@@H]1OC(C)=O)[C@@H]32 (some centres unmarked) [Vindoline]	14%	0%		
CCOC(=O)C1=C[C@]2(CC)CCCN3CCc4c(n1c1ccccc41)[C@@H]32 [Vinpocetine]	0%			
CC1=C(C/C=C(\C)CCC[C@H](C)CCC[C@H](C)CCCC(C)C)C(=O)c2ccccc2C1=O [Vitamin K1]	6%	13%		
O=c1cc(-c2ccc(O)cc2)oc2c([C@@H]3O[C@H](CO)[C@@H](O)[C@H](O)[C@H]3O)c(O)cc(O)c12 [Vitexin]	39%	0%		
CC=C1CN(C)C2Cc3c([nH]c4ccccc34)C(c3cc4[nH]c5c(c4cc3OC)CCN3CC4CC(CC)C3C5(C(=O)OC)C4)CC1C2C(=O)OC (centres unmarked) [Voacamine]	0%	0%		
CN1CC[C@]23C(=O)C[C@H]4C(=CCO[C@H]5CC(=O)N(c6c(O)cccc62)[C@H]3[C@H]54)C1 [Vomicine]	0%	0%		
C[C@@H](c1ncncc1F)[C@](O)(Cn1cncn1)c1ccc(F)cc1F [Voriconazole]	19%	0%		
CC(=O)OC[C@]12[C@H](OC(C)=O)[C@H](OC(C)=O)[C@@H]3[C@@H](OC(C)=O)[C@@]14O[C@@]3(C)COC(=O)c1cccnc1CCC(C)C(=O)O[C@@H]([C@H](OC(=O)c1ccco1)[C@@H]2OC(C)=O)[C@]4(C)O (some centres unmarked) [Wilforgine]	12%	5%		
